Data taken from ChEMBL document CHEMBL1149515, “Small molecule inhibitors of IgE synthesis” (Bioorg Med Chem Lett, 2006).
pIC50: −log10 of the molar value. Activity calls are given as the source filed them. The calls are words filed in the database; no cut-off is given here.

Tests used:
CYP1A1 = experiment: Half life assessed as CYP1A1 mediated metabolism at 1 uM; type: ADME
[1] = Lipophilicity, LogD of the compound; type: physicochemical; settings: octanol/water
[2] = Stability in human liver microsome at 1uM; type: ADME; settings: liver microsomes
PBL = experiment: Inhibition of IL4-induced IgE synthesis in human peripheral blood lymphocytes; type: functional, cell-based
Salmonella typhi = experiment: Mutagenic activity against […] by Ames assay; type: functional, organism-based; settings: Salmonella enterica subsp. enterica […]
CYP1A2 = experiment: Half life assessed as CYP1A2 mediated metabolism at 1 uM; type: ADME

SMILES | half-life at 1 µM (CYP1A1) [min] | logD [1] | half-life at 1 µM [2] [min] | pIC50 (PBL) | Activity (Salmonella typhi) | half-life at 1 µM (CYP1A2) [min]
c1cnc(N2CCN(c3nccn4ccnc34)CC2)nc1 | < 2 | 2 | 45 | 7.74 | Active | 2
CC(C)(C)NC(=O)c1cn2ccnc2c(N2CCN(c3ncccn3)CC2)n1 | 13 | 3.7 | 3 | 7.41 | inactive | –
O=C(NC1CCNC1)c1cn2ccnc2c(N2CCN(c3ccccn3)CC2)n1 (stereo not drawn) | – | – | > 120 | 6.93 | – | > 120
O=C(CCc1cnc2c(N3CCN(c4ncccn4)CC3)nccn12)N1CCOCC1 | > 120 | – | – | < 5.00 | – | > 120
CCN1CCC(NC(=O)c2nc(N3CCN(c4ncccn4)CC3)c3nccn3c2C)CC1 | > 120 | 1.2 | > 120 | 7.31 | – | –
c1cn2ccnc2c(-c2ccc(N3CCCC3)nc2)n1 | < 1 | 2.5 | 14 | 7.26 | – | < 1
c1cn2ccnc2c(N2CCN(C3CCCC3)CC2)n1 | – | – | > 120 | < 5.00 | – | > 120
CN1CCC(NC(=O)c2cn3ccnc3c(N3CCN(c4ccccn4)CC3)n2)CC1 | 45 | – | > 120 | 7.43 | – | 95
